Experiment [1] relates to GHRH-R. Put plainly: GHRH binding assay in crude anterior pituitary membrane pellets (125I-GHRHa). Also noted: species or system ovine. As to conditions: for displacement of GHRH in ovine pituitary: at 500 nM; for competition for the GHRHa binding site: at 100 nanomolar concentrations. The method, then: Specific binding is defined as the difference in the binding seen with 20 pM iodinated analog alone and binding of the analog in the presence of 10 nM non-iodinated GHRHa.
All steps were performed at 4°C. Frozen ovine or bovine anterior pituitaries (ovine: approximately 1 gm/pituitary obtained from Dr. Ian Clarke, Melbourne, Australia; bovine: approximately 2.5 gm/pituitary special handling from Pel-Freez, of Rogers, Arkansas) were washed of blood, cleaned of connective tissue and homogenized (using a Dounce homogenizer) in 50mM HEPES buffer, 100 mM NaCl, 10mM EDTA, 0.1 µM EGTA, pH 7.4 with 0.5 mM PMSF (phenyl methyl sulfonyl fluoride), 10 µg/ml leupeptin, 10 µg/ml pepstatin A, and 200 U/ml (units/ml) aprotinin. This buffer is used to remove endogenous GTP which might be bound to G proteins and to restore high affinity binding. The homogenate was spun at top speed in a microfuge and the supernatant discarded. The upper (membrane) layer of the pellet was then gently resuspended in binding buffer containing 50 mM Tris buffer, 5 mM EGTA, 5 mM MgCl2, 50µg/ml alamethicin, 30 µg/ml bacitracin and other protease inhibitors as above.
1/50 pituitary equivalent per tube was incubated in binding buffer with approximately 100,000 counts of iodinated probe in a volume of 500 µl at room temperature for 1 hour. The total counts delivered and the percent of counts bound for each tube was determined with 3 to 6 replicates per experimental condition. Saturation binding profiles were analyzed with the computer program Ligand which performs a statistically weighted least squares fit to the exact ligand binding equation in nontransformed coordinates.

Experiment [2] relates to GHRH-R. As to the kind of experiment: Photoaffinity cross-linking of receptor in pituitary membranes, SDS-PAGE autoradiography. It is filed as binding, ovine. As for the experimental part: Photoprobe binding in ovine pituitary membrane pellets was determined by γ-counting and UV induced cross-linking was examined by autoradiagraphy of sodium dodecylsulfate polyacrylamide electrophoresis (SDS-PAGE) gels. ^125I-GHRHa-ANB-NOS probe bound with an affinity of about one nanomole, nM (compared to about 160 picomole, pM, for GHRHa).
Photoprobe binding to membranes was evaluated with crude membrane binding assay and then analyzed further by SDS-PAGE electrophoresis to identify the binding sites. Photoprobes were incubated in the dark, photolysed for 10 minutes with a long wave (366 nm) UV lamp, and then the samples were pelleted. The pellets were counted and then extracted by boiling directly in SDS sample buffer (total SDS extracts). Alternatively, the labeled pellets were extracted in a mild detergent solution (5 mM CHAPS) centrifuged, and the chloroform/methanol concentrated supernatants denatured with SDS buffer (CHAPS extracts). These samples were then electrophoresed in SDS gels and autoradiographed.

The target in experiment [3] is T1, secretin and VIP receptors (Homo sapiens, UniProt P47872).
T1 construct: host or cells: human pancreas
T1 sequence (P47872 23-440): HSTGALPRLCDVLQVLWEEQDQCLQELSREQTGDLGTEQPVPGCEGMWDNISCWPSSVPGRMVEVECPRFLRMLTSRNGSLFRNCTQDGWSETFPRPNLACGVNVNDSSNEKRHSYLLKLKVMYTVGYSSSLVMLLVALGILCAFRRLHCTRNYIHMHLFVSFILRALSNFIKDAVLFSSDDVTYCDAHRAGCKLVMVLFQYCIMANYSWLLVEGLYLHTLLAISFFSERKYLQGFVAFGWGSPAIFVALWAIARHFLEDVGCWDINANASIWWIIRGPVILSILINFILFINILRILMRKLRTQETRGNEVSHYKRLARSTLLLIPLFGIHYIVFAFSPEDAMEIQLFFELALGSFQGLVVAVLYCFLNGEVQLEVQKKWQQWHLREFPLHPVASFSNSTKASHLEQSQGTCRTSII
Conditions: human pancreas, cited from earlier work; for inhibition: at 10 µM, 125I-secretin.

In experiment [4] the target is T2, GHRH-R (Homo sapiens, UniProt Q02643).
T2 construct: expressed in transfected cells
T2 sequence (Q02643 23-423): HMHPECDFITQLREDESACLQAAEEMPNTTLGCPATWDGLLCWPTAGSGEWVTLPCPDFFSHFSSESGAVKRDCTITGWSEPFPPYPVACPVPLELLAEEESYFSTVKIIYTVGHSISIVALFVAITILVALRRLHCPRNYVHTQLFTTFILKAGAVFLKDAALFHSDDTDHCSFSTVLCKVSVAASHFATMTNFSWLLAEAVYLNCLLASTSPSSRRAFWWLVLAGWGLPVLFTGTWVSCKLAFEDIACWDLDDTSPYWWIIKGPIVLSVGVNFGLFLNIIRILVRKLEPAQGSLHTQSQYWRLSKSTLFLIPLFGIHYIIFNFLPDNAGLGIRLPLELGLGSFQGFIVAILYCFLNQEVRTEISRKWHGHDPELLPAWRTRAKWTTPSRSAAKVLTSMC
As to the kind of experiment: Iodinated GHRHa binding to COS cells / COS cell membranes transfected with pCDM8 containing HAP 7 cDNA. As to conditions: for binding of iodinated GHRH in presence of peptide: 100 nM of peptide.
Description: The bars indicate the total counts bound to the cells after incubation with ^125I-GHRHa or in the presence of gradually increasing amounts of non-iodinated GRF.
Binding in the presence of increasing concentrations of competing peptides is shown. […] Each point represents an N of 6 ± standard error. Non-specific binding was 20-30% of total counts in COS cell membranes, and 40-60% in crude pituitary membranes.
Cos-1 cells were transfected with the vector formed by splicing pCDM8 and HAP cDNA, and Cos-1 cell membranes were prepared 72 hours subsequently. Cos-1 cells were transfected using 10 µg of plasmid DNA per 6x10^5 cells in a 100-mm dish using the DEAE-dextran method described by Cullen. […] COS cell cultures were transfected in parallel with pCDM8 containing a cDNA encoding the rat AT1 angiotensin II receptor.

pKd: −log10 of the molar value. Entries after “also recorded” stand apart in the source; their conditions may differ. Where no end group is shown, it is not given here.

As to `O[C@H](CS)[C@H](O)CS` (racemic) [DTT, dithiothreitol], in the experiment on GHRH-R [1] (1 mM dithiothreitol), the “specific binding in the GHRH assay after preincubation” value is listed as “completely eliminated”. Consider `Nc1nc2c(ncn2[C@@H]2O[C@H](COP(=O)(O)OP(=O)(O)OP(O)(O)=S)[C@@H](O)[C@H]2O)c(=O)[nH]1` [GTPγS], for which the “reduction of 55 kDa cross-linked band” value with GHRH-R [2] (50 µM GTPγS) is listed as “over 50%”. In addition, in the experiment on GHRH-R [1] (50 µM GTPγS), the “displacement of both photoprobes from membrane pellets” value is recorded as “partially displaced” and the “reduction of specific binding of GHRHa radioligand” value is given as “up to 65%”. Turning to `CC[C@H](C)[C@H](NC(=O)CNC(=O)[C@H](CC(=O)O)NC(=O)[C@H](CO)NC(=O)[C@@H](N)Cc1c[nH]cn1)C(=O)N[C@@H](Cc1ccccc1)C(=O)N[C@H](C(=O)N[C@@H](CC(=O)O)C(=O)N[C@@H](CO)C(=O)N[C@@H](Cc1ccc(O)cc1)C(=O)N[C@@H](CO)C(=O)N[C@@H](CCCNC(=N)N)C(=O)N[C@@H](Cc1ccc(O)cc1)C(=O)N[C@@H](CCCNC(=N)N)C(=O)N[C@@H](CCCCN)C(=O)N[C@@H](CCC(N)=O)C(=O)N[C@@H](CCSC)C(=O)N[C@@H](C)C(=O)N[C@H](C(=O)N[C@@H](CCCCN)C(=O)N[C@@H](CCCCN)C(=O)N[C@@H](Cc1ccc(O)cc1)C(=O)N[C@@H](CC(C)C)C(=O)N[C@@H](C)C(=O)N[C@@H](C)C(=O)N[C@H](C(=O)N[C@@H](CC(C)C)C(=O)NCC(=O)N[C@@H](CCCCN)C(=O)N[C@@H](CCCNC(=N)N)C(=O)N[C@@H](Cc1ccc(O)cc1)C(=O)N[C@@H](CCCCN)C(=O)N[C@@H](CCC(N)=O)C(=O)N[C@@H](CCCNC(=N)N)C(=O)N[C@H](C(=O)N[C@@H](CCCCN)C(=O)N[C@@H](CC(N)=O)C(=O)N[C@@H](CCCCN)C(N)=O)C(C)C)C(C)C)C(C)C)[C@@H](C)O` [PACAP], in the experiment with GHRH-R [1], the “displacement of GHRH in ovine pituitary” value is given as “significant displacement” and the “competition for the GHRHa binding site” value is reported as “no competition; also recorded: did not compete”.

For GHRH(1-29)-NH2, the inhibition in experiment [3] is recorded as 20%. For “PHM: competing peptide of the VIP family tested at 100 nM (HADGVFTSDFSKLLGQLSAKKYLESLM; ends and bridges not checked; UniProt P01282 81-107, looked up)”, the “binding of iodinated GHRH in presence of peptide” value (“binding of iodinated GHRH” below) with GHRH-R [4] is “uneffected”. Turning to VIP: vasoactive intestinal peptide, the inhibition in experiment [3] was 20%. Further, the “effect on 55 kDa cross-linked band” value in the experiment on GHRH-R [2] (100 nM VIP) is “unaffected”. In the experiment with GHRH-R [1], the “displacement of GHRH in ovine pituitary” value is listed as “not” and the “competition for the GHRHa binding site” value was “no competition; also recorded: did not compete”. Also, the “effect on bound counts of GHRHa” value with GHRH-R [4] (100 nM VIP, transfected COS cells, Figure 15) is “no effect”. Moreover, the “binding of iodinated GHRH” value in the experiment with GHRH-R [4] is “uneffected”. As to calcitonin, the “binding of iodinated GHRH” value with GHRH-R [4] is listed as “uneffected”.

For the compound galanin, the “binding of iodinated GHRH” value with GHRH-R [4] was “uneffected”. As to helodermin, in experiment [3] (using 125I-secretin, read-out: Kds), the pKd was 6.70.

Regarding parathyroid hormone, in the experiment with GHRH-R [4], the “binding of iodinated GHRH” value is listed as “uneffected”. Same read-out and setting: the same measure for secretin: “uneffected”; for somatostatin: “uneffected”.

Values taken from patent EP0591697B1, “Cloning and characterization of the growth hormone releasing hormone receptor” (Thorner, Michael Oliver, priority 1992, dated 1994).
